Tests used:
[1] = Cytotoxicity against human H460 cells; format: functional, cell-based; conditions: NCI-H460
Histone deacetylase 11 = biological target: T1, Histone deacetylase 11 (Homo sapiens, UniProt Q96DB2); experiment: Inhibition of human HDAC11 using RHKK(Ac) as substrate by fluorimetric analysis
T1 sequence (Q96DB2 whole entry): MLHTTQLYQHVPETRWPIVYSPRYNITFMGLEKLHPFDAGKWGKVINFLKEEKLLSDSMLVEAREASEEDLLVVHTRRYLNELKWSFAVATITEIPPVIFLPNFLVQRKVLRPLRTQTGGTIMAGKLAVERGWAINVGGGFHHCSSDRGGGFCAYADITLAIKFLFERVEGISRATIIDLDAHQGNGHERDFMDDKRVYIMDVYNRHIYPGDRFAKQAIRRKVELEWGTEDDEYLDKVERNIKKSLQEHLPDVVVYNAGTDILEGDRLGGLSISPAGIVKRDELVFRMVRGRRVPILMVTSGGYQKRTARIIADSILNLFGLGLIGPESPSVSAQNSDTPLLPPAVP

[2] = biological target: T2, Polyamine deacetylase HDAC10 (Homo sapiens, UniProt Q969S8); experiment: Inhibition of human HDAC10 using RHKK(Ac) as substrate by fluorimetric analysis
T2 sequence (Q969S8 whole entry): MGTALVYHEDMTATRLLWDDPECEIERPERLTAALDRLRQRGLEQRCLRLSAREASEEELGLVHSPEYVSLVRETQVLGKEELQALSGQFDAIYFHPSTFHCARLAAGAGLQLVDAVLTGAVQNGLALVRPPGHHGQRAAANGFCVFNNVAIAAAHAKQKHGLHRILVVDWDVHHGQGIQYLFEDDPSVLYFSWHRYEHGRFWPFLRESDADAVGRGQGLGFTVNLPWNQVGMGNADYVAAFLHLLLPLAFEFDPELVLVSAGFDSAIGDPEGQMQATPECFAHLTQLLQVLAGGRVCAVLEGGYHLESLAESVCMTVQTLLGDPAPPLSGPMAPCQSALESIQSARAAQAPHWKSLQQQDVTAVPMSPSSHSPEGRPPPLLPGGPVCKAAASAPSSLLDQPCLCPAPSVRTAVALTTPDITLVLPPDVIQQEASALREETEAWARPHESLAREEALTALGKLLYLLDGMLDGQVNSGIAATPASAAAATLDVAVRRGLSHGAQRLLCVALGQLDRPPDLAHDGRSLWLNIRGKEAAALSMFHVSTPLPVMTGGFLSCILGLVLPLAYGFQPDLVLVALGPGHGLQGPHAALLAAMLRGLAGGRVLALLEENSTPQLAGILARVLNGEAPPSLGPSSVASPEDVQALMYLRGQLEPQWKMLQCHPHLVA

[3] = biological target: T3, Protein deacetylase HDAC6 (Homo sapiens, UniProt Q9UBN7); experiment: Inhibition of human HDAC6 using RHKK(Ac) as substrate by fluorimetric analysis
T3 sequence (Q9UBN7 whole entry): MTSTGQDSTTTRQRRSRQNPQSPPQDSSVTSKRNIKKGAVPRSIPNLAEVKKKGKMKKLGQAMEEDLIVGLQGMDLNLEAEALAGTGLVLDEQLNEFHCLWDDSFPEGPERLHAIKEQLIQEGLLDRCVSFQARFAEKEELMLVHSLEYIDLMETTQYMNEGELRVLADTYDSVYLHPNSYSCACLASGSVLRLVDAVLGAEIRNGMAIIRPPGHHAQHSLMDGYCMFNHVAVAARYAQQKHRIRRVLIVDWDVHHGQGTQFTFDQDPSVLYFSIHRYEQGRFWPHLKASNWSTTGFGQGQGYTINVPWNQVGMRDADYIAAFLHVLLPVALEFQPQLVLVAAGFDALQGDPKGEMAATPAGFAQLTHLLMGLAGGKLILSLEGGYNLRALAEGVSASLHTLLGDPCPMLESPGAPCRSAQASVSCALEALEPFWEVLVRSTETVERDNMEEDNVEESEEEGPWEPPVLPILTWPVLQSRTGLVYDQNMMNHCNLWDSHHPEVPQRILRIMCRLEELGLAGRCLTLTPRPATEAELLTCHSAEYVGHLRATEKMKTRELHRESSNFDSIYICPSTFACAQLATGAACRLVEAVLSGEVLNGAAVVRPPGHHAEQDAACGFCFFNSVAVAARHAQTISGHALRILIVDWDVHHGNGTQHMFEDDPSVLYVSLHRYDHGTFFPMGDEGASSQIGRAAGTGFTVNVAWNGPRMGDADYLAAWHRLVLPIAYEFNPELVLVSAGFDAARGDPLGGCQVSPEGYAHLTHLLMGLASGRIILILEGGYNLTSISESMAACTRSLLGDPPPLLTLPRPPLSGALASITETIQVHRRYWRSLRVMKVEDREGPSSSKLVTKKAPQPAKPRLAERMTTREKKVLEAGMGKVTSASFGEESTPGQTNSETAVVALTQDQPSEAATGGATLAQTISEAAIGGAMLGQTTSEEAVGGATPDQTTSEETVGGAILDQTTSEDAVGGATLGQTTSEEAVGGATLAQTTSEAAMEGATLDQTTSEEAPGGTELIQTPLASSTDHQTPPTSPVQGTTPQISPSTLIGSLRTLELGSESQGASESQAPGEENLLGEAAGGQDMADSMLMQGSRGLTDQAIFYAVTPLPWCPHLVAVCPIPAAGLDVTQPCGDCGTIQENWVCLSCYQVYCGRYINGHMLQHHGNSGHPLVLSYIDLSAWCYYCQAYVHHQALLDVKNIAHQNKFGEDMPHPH

[4] = biological target: Histone deacetylase 3/Nuclear receptor corepressor 2 (HDAC3/NCoR2) (Homo sapiens, UniProt O15379); experiment: Inhibition of human HDAC3/NCOR2 using RHKK(Ac) as substrate by fluorimetric analysis; format: protein-complex assay
Histone deacetylase 3/Nuclear receptor corepressor 2 (HDAC3/NCoR2), sequence (O15379 whole entry): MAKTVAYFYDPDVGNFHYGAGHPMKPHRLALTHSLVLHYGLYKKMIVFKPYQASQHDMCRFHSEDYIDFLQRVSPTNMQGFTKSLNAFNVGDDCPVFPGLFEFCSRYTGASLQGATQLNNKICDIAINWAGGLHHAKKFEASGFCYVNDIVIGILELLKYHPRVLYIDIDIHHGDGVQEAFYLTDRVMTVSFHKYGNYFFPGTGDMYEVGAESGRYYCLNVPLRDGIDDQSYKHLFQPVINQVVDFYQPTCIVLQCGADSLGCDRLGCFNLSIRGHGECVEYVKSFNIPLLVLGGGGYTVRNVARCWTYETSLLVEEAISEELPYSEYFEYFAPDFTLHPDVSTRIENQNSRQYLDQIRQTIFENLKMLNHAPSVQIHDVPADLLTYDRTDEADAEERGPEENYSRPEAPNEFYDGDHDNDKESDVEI
Histone deacetylase 3/Nuclear receptor corepressor 2 (HDAC3/NCoR2), sequence (Q9Y618 whole entry, further chain): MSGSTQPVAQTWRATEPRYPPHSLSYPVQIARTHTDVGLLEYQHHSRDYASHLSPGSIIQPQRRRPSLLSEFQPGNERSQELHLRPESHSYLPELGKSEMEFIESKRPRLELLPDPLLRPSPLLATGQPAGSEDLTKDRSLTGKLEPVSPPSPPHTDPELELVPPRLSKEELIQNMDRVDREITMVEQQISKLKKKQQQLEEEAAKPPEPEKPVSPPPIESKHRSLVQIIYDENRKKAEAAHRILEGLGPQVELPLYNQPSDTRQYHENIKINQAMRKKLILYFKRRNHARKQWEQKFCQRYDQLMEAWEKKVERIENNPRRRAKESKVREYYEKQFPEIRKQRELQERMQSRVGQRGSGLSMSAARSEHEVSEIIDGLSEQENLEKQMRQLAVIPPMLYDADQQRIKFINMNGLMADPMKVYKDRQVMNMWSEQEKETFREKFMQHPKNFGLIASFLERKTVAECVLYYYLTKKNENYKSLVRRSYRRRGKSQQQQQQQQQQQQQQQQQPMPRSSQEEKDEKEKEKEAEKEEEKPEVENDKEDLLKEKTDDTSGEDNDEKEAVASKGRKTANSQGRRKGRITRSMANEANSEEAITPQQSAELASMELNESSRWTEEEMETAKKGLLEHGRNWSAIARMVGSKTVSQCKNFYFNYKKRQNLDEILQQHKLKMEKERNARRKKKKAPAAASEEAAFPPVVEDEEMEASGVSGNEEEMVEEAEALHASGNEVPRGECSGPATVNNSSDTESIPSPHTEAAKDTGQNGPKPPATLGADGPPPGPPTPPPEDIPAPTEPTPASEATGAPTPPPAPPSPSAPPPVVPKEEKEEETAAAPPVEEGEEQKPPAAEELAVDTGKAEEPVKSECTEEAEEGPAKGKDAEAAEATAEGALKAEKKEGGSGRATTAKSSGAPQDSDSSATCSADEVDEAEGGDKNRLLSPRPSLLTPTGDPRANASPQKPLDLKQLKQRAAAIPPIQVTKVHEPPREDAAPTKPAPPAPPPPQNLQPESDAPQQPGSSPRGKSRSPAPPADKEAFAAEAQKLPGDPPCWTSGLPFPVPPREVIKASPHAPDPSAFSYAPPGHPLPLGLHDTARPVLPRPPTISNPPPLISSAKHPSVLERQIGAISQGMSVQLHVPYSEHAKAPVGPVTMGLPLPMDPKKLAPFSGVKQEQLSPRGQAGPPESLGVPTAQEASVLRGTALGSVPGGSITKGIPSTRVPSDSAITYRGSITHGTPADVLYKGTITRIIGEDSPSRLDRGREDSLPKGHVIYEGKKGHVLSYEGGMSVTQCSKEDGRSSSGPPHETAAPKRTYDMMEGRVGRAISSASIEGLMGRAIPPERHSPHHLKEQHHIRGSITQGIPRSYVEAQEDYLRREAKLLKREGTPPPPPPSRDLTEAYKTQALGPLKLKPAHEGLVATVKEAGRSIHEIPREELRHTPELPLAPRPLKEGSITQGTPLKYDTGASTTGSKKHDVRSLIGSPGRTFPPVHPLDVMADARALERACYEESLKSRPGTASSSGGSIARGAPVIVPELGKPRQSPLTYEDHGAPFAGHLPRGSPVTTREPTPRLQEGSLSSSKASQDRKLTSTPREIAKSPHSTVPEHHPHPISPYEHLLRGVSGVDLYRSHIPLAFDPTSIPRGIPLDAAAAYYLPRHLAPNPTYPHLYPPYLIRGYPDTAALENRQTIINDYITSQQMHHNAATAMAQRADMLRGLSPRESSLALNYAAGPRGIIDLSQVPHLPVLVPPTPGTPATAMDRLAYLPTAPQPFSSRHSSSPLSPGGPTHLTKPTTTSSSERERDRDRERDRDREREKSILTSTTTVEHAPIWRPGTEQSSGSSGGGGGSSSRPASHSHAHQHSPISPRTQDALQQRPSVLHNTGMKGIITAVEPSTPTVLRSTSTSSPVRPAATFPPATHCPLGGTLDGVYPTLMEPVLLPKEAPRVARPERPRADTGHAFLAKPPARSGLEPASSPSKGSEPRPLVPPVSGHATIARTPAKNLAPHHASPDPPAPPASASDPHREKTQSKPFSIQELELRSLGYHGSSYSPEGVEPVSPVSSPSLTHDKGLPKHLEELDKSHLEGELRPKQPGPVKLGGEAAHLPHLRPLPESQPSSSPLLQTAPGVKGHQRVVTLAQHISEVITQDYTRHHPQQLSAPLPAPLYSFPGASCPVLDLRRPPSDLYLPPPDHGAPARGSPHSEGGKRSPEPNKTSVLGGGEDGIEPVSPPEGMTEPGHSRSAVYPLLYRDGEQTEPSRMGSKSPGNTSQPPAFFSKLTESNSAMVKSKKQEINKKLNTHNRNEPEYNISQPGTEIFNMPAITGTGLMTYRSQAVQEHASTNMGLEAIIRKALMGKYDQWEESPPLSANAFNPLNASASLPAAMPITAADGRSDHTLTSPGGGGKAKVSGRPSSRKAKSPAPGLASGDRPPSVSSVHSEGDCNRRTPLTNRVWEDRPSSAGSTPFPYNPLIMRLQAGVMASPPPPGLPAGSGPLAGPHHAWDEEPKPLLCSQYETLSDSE

Histone deacetylase 2 = Histone deacetylase 2 (Homo sapiens, UniProt Q92769); experiment: Inhibition of human HDAC2 using RHKK(Ac) as substrate by fluorimetric analysis
Histone deacetylase 2, sequence (Q92769 whole entry): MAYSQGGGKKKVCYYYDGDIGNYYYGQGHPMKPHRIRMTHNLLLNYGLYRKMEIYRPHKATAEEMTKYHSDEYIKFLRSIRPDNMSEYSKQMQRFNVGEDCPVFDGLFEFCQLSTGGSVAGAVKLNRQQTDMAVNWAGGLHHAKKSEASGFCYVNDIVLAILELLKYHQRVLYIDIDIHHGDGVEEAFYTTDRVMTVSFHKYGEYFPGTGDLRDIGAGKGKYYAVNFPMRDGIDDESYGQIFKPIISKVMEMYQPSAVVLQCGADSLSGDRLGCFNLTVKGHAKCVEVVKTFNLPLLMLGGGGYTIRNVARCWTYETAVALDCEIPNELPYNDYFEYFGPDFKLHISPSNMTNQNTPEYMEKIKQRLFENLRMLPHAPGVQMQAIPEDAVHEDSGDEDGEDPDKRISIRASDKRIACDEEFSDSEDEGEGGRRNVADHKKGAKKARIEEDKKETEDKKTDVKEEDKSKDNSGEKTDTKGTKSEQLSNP

Histone deacetylase 1 = Histone deacetylase 1 (Homo sapiens, UniProt Q13547); experiment: Inhibition of human HDAC1 using RHKK(Ac) as substrate by fluorimetric analysis
Histone deacetylase 1, sequence (Q13547 whole entry): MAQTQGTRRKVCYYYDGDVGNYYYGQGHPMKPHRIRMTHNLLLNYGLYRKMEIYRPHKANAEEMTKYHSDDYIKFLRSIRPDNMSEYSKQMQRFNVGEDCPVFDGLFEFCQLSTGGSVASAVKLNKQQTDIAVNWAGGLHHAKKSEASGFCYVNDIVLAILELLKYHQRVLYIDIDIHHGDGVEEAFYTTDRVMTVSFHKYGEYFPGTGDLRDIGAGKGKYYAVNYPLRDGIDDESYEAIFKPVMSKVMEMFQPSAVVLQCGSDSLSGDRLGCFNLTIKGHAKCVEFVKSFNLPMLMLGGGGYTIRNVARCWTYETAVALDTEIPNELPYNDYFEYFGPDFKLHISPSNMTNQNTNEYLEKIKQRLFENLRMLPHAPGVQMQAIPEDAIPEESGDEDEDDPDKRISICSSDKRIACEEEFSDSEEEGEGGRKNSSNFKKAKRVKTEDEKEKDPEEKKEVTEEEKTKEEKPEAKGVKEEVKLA

Row | Compound | IC50 [1] [nM] | IC50 (Histone deacetylase 11) [nM] | IC50 [2] [nM] | IC50 [3] [nM] | IC50 [4] [nM] | IC50 (Histone deacetylase 2) [nM] | IC50 (Histone deacetylase 1) [nM]
1 | O=C(CCCCC[C@H](NC(=O)C1C(=O)NCC1c1ccccc1)C(=O)Nc1ccccc1)NO (stereo not given in full) | 2400 | 70 | 88 | 4 | 14 | 110 | 33
2 | Cc1ccc(NC(=O)CCCCCCC(=O)NO)cc1 | 4100 | 78.6 | 649 | 12 | 452 | 589 | 200
3 | O=C(CCCCCCC(=O)NCCc1ccccc1)NO | 18200 | 1130 | 1350 | 25 | 3610 | 5160 | 1140
4 | O=C(CCCCC[C@H](NC(=O)C1CCCNC1=O)C(=O)Nc1ccccc1)NO (stereo not given in full) | 5100 | 255 | 244 | 19 | 116 | 689 | 131
5 | O=C(CCCCCCC(=O)NC1CCCC1)NO | 21000 | 2630 | 4890 | 75 | 3330 | 4390 | 1790
6 | O=C(CCCCC[C@H](NC(=O)[C@@H]1CCCC(=O)N1)C(=O)Nc1ccccc1)NO | 2500 | 47 | 51 | 5 | 20 | 89 | 25
7 | O=C(CCCCC[C@H](NC(=O)C1CCNC1=O)C(=O)Nc1ccccc1)NO (stereo not given in full) | 4000 | 150 | 147 | 4 | 74 | 238 | 72
8 | Cc1cccc(NC(=O)CCCCCCC(=O)NO)c1 | 800 | 1600 | 503 | 22 | 216 | – | 197
9 | O=C(CCCCC[C@H](NC(=O)[C@@H]1CCC(=O)N1)C(=O)Nc1ccccc1)NO | 5400 | 37 | 125 | 6 | 89 | 143 | 59
10 | O=C(CCCCC[C@H](NC(=O)[C@H]1CCC(=O)N1)C(=O)Nc1ccccc1)NO | 4000 | 75 | 93 | 8 | 67 | 142 | 43
11 | O=C(CCCCC[C@H](NC(=O)[C@@H]1CC(=O)N1)C(=O)Nc1ccccc1)NO | 2200 | 135 | 113 | 3 | 62 | 89 | 34
12 | Cc1cccc(NC(=O)[C@H](CCCCCC(=O)NO)NC(=O)[C@H]2CCC(=O)N2)c1 | 500 | 15.5 | 30.3 | 3 | 11 | 27 | 7
13 | O=C(CCCCC[C@H](NC(=O)[C@H]1CCC(=O)N1)C(=O)Nc1cccc(C(F)(F)F)c1)NO | 500 | 55.5 | 10.6 | 2 | 2 | 8 | 2
14 | Cc1ccc(NC(=O)[C@H](CCCCCC(=O)NO)NC(=O)[C@H]2CCC(=O)N2)cc1 | 600 | 127 | 163 | 4 | 66 | 93 | 32
15 | O=C(CCCCCCC(=O)Nc1cccc(C(F)(F)F)c1)NO | 2500 | 75.1 | 374 | 6 | 185 | 165 | 63
16 | O=C(CCCCC[C@H](NC(=O)[C@@H]1CCCC(=O)N1)C(=O)NCCc1ccccc1)NO | 8200 | 262 | 227 | 8 | 539 | 956 | 102
17 | O=C(CCCCC[C@H](NC(=O)[C@@H]1CCCC(=O)N1)C(=O)NC1CCCC1)NO | 2400 | 1440 | 6830 | 31 | 5660 | 5040 | 1450
18 | O=C(CCCCC[C@H](NC(=O)[C@H]1CCC(=O)N1)C(=O)NCCc1ccccc1)NO | 4900 | 47.8 | 210 | 6 | 144 | 180 | 77
